From patent publication US5945436A, “Pyridylmethyl nitriles, amides and thioamides useful as fungicides” (Uniroyal Chemical Company, Inc., priority 1997, dated 1999)

Columns and labels:
Erysiphe graminis = experiment: Powdery mildew of barley, systemic root uptake (BMS); format: in vivo; conditions: 45 ml of 250 mg/l, 8 days after inoculation
Protocol: Compositions containing Compounds Nos. 1-81 were prepared by dissolving 0.24 grams of each of the compounds in 8 ml of acetone or other suitable inert solvent. Each of the resultant solutions was treated with 3 drops of TWEEN 20 (ethoxylated ethylene sorbitan monolaurate, a non-ionic surfactant)(I.C.I.), and water was added to form an emulsion. The degree of dilution with water was dictated by the desired concentration of the compound in the composition. The greater the quantity of water added, the lower the concentration of the compound in the composition, reported in milligrams per liter (mg/l) […] Upon reaching these ages, the plants were either treated with 45 ml of 250 mg/l concentration of the compositions of Example 9 or were left untreated. The untreated plants were used as controls. The 45 ml compositions saturated the soil of the treated pots without significant loss through drainage into the saucers below the pots. Twenty-four hours after the treatment with the compositions, both the barley and cucumber plants in all the pots, those treated and those untreated, were inoculated with powdery mildew fungus. This was accomplished by tapping leaves of previously infected barley and cucumber plants over the treated and untreated pots containing the barley and cucumber plants, respectively, to distribute spores of the fungus over the plants tested. […] Intermediate ratings were assigned depending on the degree of disease. […] The results of the powdery mildew disease control of barley are reported under the heading of "BMS". The results for cucumber mildew control are reported under the heading "CMS".

Pythium ultimum = experiment: Fungal growth inhibition, treated disc on agar (PYT ULT); format: cell-based; conditions: Globisporangium ultimum, disc dipped in 500 mg/l, 29° C., read-out: Percent Growth Inhibition, PYT ULT
Fusarium oxysporum = experiment: Fungal growth inhibition, treated disc on agar (FUS OXY); format: cell-based; conditions: Fusarium oxysporum, disc dipped in 500 mg/l, 29° C., read-out: Percent Growth Inhibition, FUS OXY
Erysiphe polygoni = experiment: Powdery mildew on pinto bean, foliar application (ERY POL); format: in vivo; conditions: Erysiphe polygoni, similar procedure as barley (1,000 mg/l), read-out: Percent Reduction of Disease, ERY POL
Protocol: Compositions containing Compounds Nos. 1-81 were prepared by dissolving 0.24 grams of each of the compounds in 8 ml of acetone or other suitable inert solvent. Each of the resultant solutions was treated with 3 drops of TWEEN 20 (ethoxylated ethylene sorbitan monolaurate, a non-ionic surfactant)(I.C.I.), and water was added to form an emulsion. The degree of dilution with water was dictated by the desired concentration of the compound in the composition. The greater the quantity of water added, the lower the concentration of the compound in the composition, reported in milligrams per liter (mg/l) Ten plants of "Robust" variety barley were planted in each of a plurality of pots. Each pot was then either sprayed with one of the compositions of Example 9, at a composition concentration of 1,000 mg/l, or left unsprayed. For each pot sprayed, one pot was left unsprayed as a control. After the leaves of the sprayed pots were dried, the sprayed pots and the unsprayed control pots were placed in a greenhouse maintained at 21° C. All the pots were then inoculated with barley powdery mildew fungus, Erysiphe graminis. This inoculation was accomplished by distributing spores of the fungus over the leaves of the plants to be tested from plants which had previously been infected with the mildew disease. […] Again, percent control was computed by comparing the treatment scores with the scores of the untreated controls. The results are summarized in Table II under the heading "ERY GRA". Using a similar procedure as described above for the barley, pinto bean plants were prepared, treated and inoculated with the fungus Erysiphe polygoni. The results of this testing are summarized in Table II under the heading "ERY POL".

Colletotrichum gossypii = experiment: Fungal growth inhibition, treated disc on agar (COL GOS); format: cell-based; conditions: Colletotrichum gossypii, disc dipped in 500 mg/l, 29° C., read-out: Percent Growth Inhibition, COL GOS
Scierotinia minor = experiment: Fungal growth inhibition, treated disc on agar (SCL MIN); format: cell-based; conditions: disc dipped in 500 mg/l, 29° C., read-out: Percent Growth Inhibition, SCL MIN
[1] = system: Cercosporidium personatum; experiment: Fungal germination and growth, treated disc on agar, scored (CER PER); format: cell-based; set-up: key: 100: Complete inhibition of germination and growth.; 80: Nearly complete inhibition but some growth.; 50: Partial inhibition of growth or, early complete inhibition but later growth begins.; 20: Some inhibition of growth, but not significant.; 0: No inhibition of growth; conditions: disc dipped in 500 mg/l, 29° C., numerical score 0-100, spore suspension
Description: Filter paper discs, each 11 mm. in diameter, were dipped in each of the test solutions. The discs were allowed to air dry to drive off the acetone solvent. A number of untreated discs were used as controls. The treated and untreated discs were then placed on agar plates and one of the following fungus species: Septoria nodorum (SEP NOD), Botrytis cinerea (BOT CIN), Fusarium oxysporum (FUS OXY), Pythium ultimum ([…]), Rhizoctonia solani (RHI SOL), Colletotrichum gossypii (COL GOS), and Scierotinia minor (SCL MIN), was added to the center of each disc in the form of a culture plug with the fungus mat in contact with the paper of the test disc. Cercosporidium personatum (CER PER), was added to discs as a spore suspension (20,000 spores/ml) to the disc (two drops of spore suspension per disc), rather than a mycelial culture plug. The plates were then incubated at 29° C. in an oven. In the case of the Cercosporidium personatum (CER PER) fungi, scoring was done on a numerical basis as follows: 100=Complete inhibition of germination and growth. 80=Nearly complete inhibition but some growth. 50=Partial inhibition of growth or, early complete inhibition but later growth begins. 20=Some inhibition of growth, but not significant. 0=No inhibition of growth. The results of all the above tests appear in Table III below under the headings "SEP NOD," "BOT CIN," "FUS OXY," "[…]" "COL GOS" and "CER PER".

| SMILES | Percent Reduction of Disease, BMS (Erysiphe graminis) [%] | inhibition at 500 µg/mL (Pythium ultimum) [%] | inhibition at 500 µg/mL (Fusarium oxysporum) [%] | pest or weed control at 1000 µg/mL (Erysiphe polygoni) [%] | inhibition at 500 µg/mL (Colletotrichum gossypii) [%] | inhibition at 500 µg/mL (Scierotinia minor) [%] | CER PER inhibition score [1] |
| --- | --- | --- | --- | --- | --- | --- | --- |
| N#CC(CCc1ccccc1)(CCc1ccccc1)c1cccnc1 [A, reference compound] | 15 | 10 | 10 | 15 | 25 | 10 | 0 |
| CC(C)(C)c1ccc(CC(C#N)(Cc2ccc(C(C)(C)C)cc2)c2cccnc2)cc1 [B, reference compound] | 10 | 15 | 0 | 0 | 0 | 60 | 0 |
| CCCC(C#N)(CCc1ccccc1)c1cccnc1 (centres unmarked) [Compound 1] | 60 | 40 | 97 | 95 | 100 | 100 | 100 |
| CCCCCCCC(C#N)(CCc1ccccc1)c1cccnc1 (centres unmarked) [Compound 2] | 0 | 0 | 30 | 100 | 60 | 100 | 100 |
| CCCCCC(C#N)(CCc1ccccc1)c1cccnc1 (centres unmarked) [Compound 3] | 35 | 5 | 0 | 100 | 97 | 100 | 100 |
| C#CCC(C#N)(CCc1ccccc1)c1cccnc1 (centres unmarked) [Compound 4] | 35 | 100 | 100 | 90 | 100 | 98 | 100 |
| C=CCC(C#N)(CCc1ccccc1)c1cccnc1 (centres unmarked) [Compound 5] | 85 | 82 | 76 | 90 | 97 | 95 | 0 |
| COCC(C#N)(CCc1ccccc1)c1cccnc1 (centres unmarked) [Compound 6] | 100 | 50 | 93 | 100 | 95 | 100 | 0 |
| CC(C)CC(C#N)(CCc1ccccc1)c1cccnc1 (centres unmarked) [Compound 7] | 35 | 35 | 100 | 100 | 89 | 10 | 0 |
| CC(C)=CCC(C#N)(CCc1ccccc1)c1cccnc1 (centres unmarked) [Compound 8] | 45 | 35 | 0 | 99 | 95 | 100 | 80 |
| C=CCC(C#N)(CCc1ccc(F)cc1)c1cccnc1 (stereo not drawn) [Compound 9, 4-fluoro-α-(2-propenyl)-α-(3-pyridinyl)benzenebutanenitrile] | 40 | 35 | 100 | 99 | 100 | 98 | 100 |
| CCCC(C#N)(CCc1ccc(F)cc1)c1cccnc1 (centres unmarked) [Compound 10] | 84 | 40 | 97 | 99 | 97 | 100 | 100 |
| CCCCC(C#N)(CCc1ccc(F)cc1)c1cccnc1 (centres unmarked) [Compound 11] | 74 | 40 | 10 | 100 | 100 | 98 | 0 |
| CCCC(C#N)(CCCc1ccc(Cl)cc1)c1cccnc1 (centres unmarked) [Compound 12] | 40 | 90 | 80 | 95 | 93 | 92 | 100 |
| CCCCC(C#N)(CCCc1ccc(Cl)cc1)c1cccnc1 (centres unmarked) [Compound 13] | 40 | 10 | 60 | 100 | 93 | 94 | 0 |
| CCCC(C#N)(Cc1ccc(C(C)(C)C)cc1)c1cccnc1 (centres unmarked) [Compound 14] | 0 | 10 | 25 | 100 | 5 | 5 | 0 |
| CCCC(C#N)(CCCc1ccccc1Cl)c1cccnc1 (stereo not drawn) [Compound 15, 2-chloro-α-propyl-(3-pyridinyl)benzene pentanenitrile] | 0 | 83 | 95 | 100 | 93 | 100 | 100 |
| CCCCCCC(C#N)(Cc1ccc(C(C)(C)C)cc1)c1cccnc1 (centres unmarked) [Compound 16] | 0 | 45 | 5 | 100 | 42 | 5 | 0 |
| CCCC(C#N)(Cc1ccc(Oc2ccccc2)cc1)c1cccnc1 (centres unmarked) [Compound 17] | 0 | 45 | 60 | 100 | 20 | 10 | 0 |
| C=CCC(C#N)(Cc1ccc(C(C)(C)C)cc1)c1cccnc1 (centres unmarked) [Compound 18] | 20 | 40 | 50 | 100 | 10 | 10 | 0 |
